Each block holds one compound with its values, some of them ahead of it.
Tests used:
common marmosets = assay: Depressive effect in marmosets (blood pressure of conscious marmosets in a high renin state); type: in vivo; details: 100 mg/kg orally, conscious furosemide-treated common marmoset
Method: The experiment was carried out by using common marmosets as described in K. G. Hofbauer et al., Clinical and Experimental Hypertension-Theory and Practice, Vol A5, Nos 7 & 8 (1983), pages 1237-1247.
Furosemide was orally administered three times to common marmosets at 15 mg per kilogram per day every other day to create a high renin state. The operation was performed according to the method used by K. G. Hofbauer et al., and blood pressure of conscious marmosets was measured 2 days after the last administration of furosemide.
Male common marmosets weighing 350 g and 280 g were lightly anesthetized by Ketamine hydrochloride (Ketalar®, 10 to 20 mg/kg i.m.), and their femoral artery and vein was exposed. Catheters being filled with a heparin solution was subcutaneously inserted into the femoral vein and the femoral artery from the tail. After suturing of the opened part, the marmosets were placed on a heated mat. After complete recovery from the anesthesia, a dipeptide of the present invention (100 mg/kg) was orally administered through a soft catheter.
The arterial catheter was connected to a pressure transducer and blood pressure was recorded on the polygraph.

human renin = target: T1, human renin (Homo sapiens, UniProt P00797); assay: Human renin-sheep renin substrate reaction system in vitro; type: biochemical; details: purified human renin, semipurified sheep renin substrate, pH 7.4, 37° C., 15 minutes; angiotensin I by radioimmunoassay; read-out: IC50 (molar concentration)
T1 sequence (P00797 67-406): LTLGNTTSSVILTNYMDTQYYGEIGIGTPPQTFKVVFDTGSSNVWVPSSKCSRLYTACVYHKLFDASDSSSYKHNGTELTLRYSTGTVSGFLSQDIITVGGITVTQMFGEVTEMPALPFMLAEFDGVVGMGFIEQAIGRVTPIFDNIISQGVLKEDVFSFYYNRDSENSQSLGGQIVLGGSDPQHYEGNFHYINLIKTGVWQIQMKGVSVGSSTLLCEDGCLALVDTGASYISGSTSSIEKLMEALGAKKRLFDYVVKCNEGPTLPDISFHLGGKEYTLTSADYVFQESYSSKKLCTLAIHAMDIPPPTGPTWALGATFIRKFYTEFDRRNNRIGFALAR
Method: The mixture was incubated for 15 minutes on a water bath at 37° C., and the reaction mixture was allowed to stand for 5 minutes on a water bath at 100° C. to stop the reaction. After cooling, 200 μl of the solution was taken up and the amount of angiotensin I produced by the addition of renin was determined by radioimmunoassay. The inhibitory effect was calculated by the following equation. [formula]
As a control, the same procedure as above was carried out by using 50 μl of dimethyl sulfoxide alone in place of the 50 μl of dimethyl sulfoxide solution containing a dipeptide of the present invention.

SMILES: CC(C)C[C@@H](C=O)NC(=O)[C@H](Cc1c[nH]cn1)NC(=O)C(CC(=O)NCCc1ccccc1)Cc1cccc2ccccc12 (stereo partly drawn) [N-[2-(1-Naphthylmethyl)-3-(phenethylcarbamoyl)propionyl]-L-histidyl-L-leucinal]
- Blood pressure (mm Hg) (common marmosets; 60 min. after administration): 98.2 mm Hg
- Blood pressure (mm Hg) (common marmosets; 120 min. after administration): 88.0 mm Hg
- Blood pressure (mm Hg) (common marmosets; 180 min. after administration): 87.6 mm Hg
- Blood pressure (mm Hg) (common marmosets; 300 min. after administration): 96.5 mm Hg
- Blood pressure (mm Hg) (common marmosets; 420 min. after administration): 101.2 mm Hg

SMILES: CC(C)C[C@@H](CO)NC(=O)[C@H](Cc1c[nH]cn1)NC(=O)C(CC(=O)NCCc1ccccc1)Cc1cccc2ccccc12 (stereo partly drawn) [N-[2-(1-Naphthylmethyl)-3-(phenethylcarbamoyl)propionyl]-L-histidyl-L-leucinol]
- Blood pressure (mm Hg) (common marmosets; 60 min. after administration): 97.7 mm Hg
- Blood pressure (mm Hg) (common marmosets; 120 min. after administration): 89.5 mm Hg
- Blood pressure (mm Hg) (common marmosets; 180 min. after administration): 95.3 mm Hg
- Blood pressure (mm Hg) (common marmosets; 300 min. after administration): 97.4 mm Hg
- Blood pressure (mm Hg) (common marmosets; 420 min. after administration): 99.0 mm Hg

- IC50 (human renin): 3400 nM
SMILES: CC(C)C[C@@H](C=O)NC(=O)[C@H](Cc1c[nH]cn1)NC(=O)C(CCCCc1ccc2ccccc2c1)Cc1ccccc1 (stereo partly drawn) [N-[2-Benzyl-6-(2-naphthyl)hexanoyl]-L-histidyl-L-leucinal]

- IC50 (human renin): 2000 nM
SMILES: CC(C)C[C@@H](C=O)NC(=O)[C@H](Cc1c[nH]cn1)NC(=O)C(CCCCCc1ccccc1)Cc1ccccc1 (stereo partly drawn) [N-[2-Benzyl-7-phenylheptanoyl)-L-histidyl-L-leucinal]

- IC50 (human renin): 3800 nM
SMILES: CC(C)C[C@@H](C=O)NC(=O)[C@H](Cc1c[nH]cn1)NC(=O)C(=Cc1ccccc1)CC(=O)NCc1cccc2ccccc12 [N-[2-Benzylidene-3-(1-naphthylmethylcarbamoyl)propionyl]-L-histidyl-L-leucinal]

- IC50 (human renin): 3500 nM
SMILES: CC(C)C[C@@H](C=O)NC(=O)[C@H](Cc1c[nH]cn1)NC(=O)C(CCc1ccccc1)CCc1ccccc1 [N-[4-Phenyl-2-(2-phenylethyl)butanoyl]-L-histidyl-L-leucinal]

- IC50 (human renin): 88 nM
SMILES: CC(C)C[C@@H](C=O)NC(=O)[C@H](Cc1c[nH]cn1)NC(=O)C(CCCCc1ccccc1)Cc1cccc2ccccc12 (stereo partly drawn) [N-[(+)-2-(1-Naphthylmethyl)-6-phenylhexanoyl]-L-histidyl-L-leucinal]

- IC50 (human renin): 460 nM
SMILES: CC(C)C[C@@H](C=O)NC(=O)[C@H](Cc1c[nH]cn1)NC(=O)C(CCCCc1ccccc1)Cc1cccc2ccccc12 (stereo partly drawn) [N-[(-)-2-(1-Naphthylmethyl)-6-phenylhexanoyl]-L-histidyl-L-leucinal]
